Experiment [1] addresses TLR1/TLR2 (Mus musculus, UniProt Q9EPQ1+Q9QUN7). Put plainly: TNF-α release from thioglycolate-elicited mouse peritoneal macrophages (ELISA). As to conditions: for Emax: 4 h, read-out: Efficacy (magnitude) of response versus diprovocim-1 (100%), mouse macrophages; for EC50: read-out: EC50 (nM) (mouse): EC50 TNF-α release from mouse macrophages, Table 1. For orientation: An ELISA detects its analyte on a solid surface through an enzyme-linked reagent.

The target of experiment [2] is TLR1/TLR2 (Homo sapiens, UniProt O60603+Q15399). Put plainly: TNF-α release from PMA-differentiated human THP-1 cells (ELISA).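 On all read-outs here: cells exposed to graded compound concentrations for 4 h, TNF-α quantified in supernatant, LPS as positive and DMSO as negative control, values are duplicate means.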 As to conditions: for Emax: THP-1, 4 h, read-out: Efficacy (magnitude) of response versus diprovocim-1 (100%), THP-1; for EC50: read-out: EC50 (nM) (THP-1): EC50 TNF-α release from human THP-1 cells, Table 1.
Chain of TLR1/TLR2 (Homo sapiens, UniProt O60603+Q15399) (Q15399 25-786): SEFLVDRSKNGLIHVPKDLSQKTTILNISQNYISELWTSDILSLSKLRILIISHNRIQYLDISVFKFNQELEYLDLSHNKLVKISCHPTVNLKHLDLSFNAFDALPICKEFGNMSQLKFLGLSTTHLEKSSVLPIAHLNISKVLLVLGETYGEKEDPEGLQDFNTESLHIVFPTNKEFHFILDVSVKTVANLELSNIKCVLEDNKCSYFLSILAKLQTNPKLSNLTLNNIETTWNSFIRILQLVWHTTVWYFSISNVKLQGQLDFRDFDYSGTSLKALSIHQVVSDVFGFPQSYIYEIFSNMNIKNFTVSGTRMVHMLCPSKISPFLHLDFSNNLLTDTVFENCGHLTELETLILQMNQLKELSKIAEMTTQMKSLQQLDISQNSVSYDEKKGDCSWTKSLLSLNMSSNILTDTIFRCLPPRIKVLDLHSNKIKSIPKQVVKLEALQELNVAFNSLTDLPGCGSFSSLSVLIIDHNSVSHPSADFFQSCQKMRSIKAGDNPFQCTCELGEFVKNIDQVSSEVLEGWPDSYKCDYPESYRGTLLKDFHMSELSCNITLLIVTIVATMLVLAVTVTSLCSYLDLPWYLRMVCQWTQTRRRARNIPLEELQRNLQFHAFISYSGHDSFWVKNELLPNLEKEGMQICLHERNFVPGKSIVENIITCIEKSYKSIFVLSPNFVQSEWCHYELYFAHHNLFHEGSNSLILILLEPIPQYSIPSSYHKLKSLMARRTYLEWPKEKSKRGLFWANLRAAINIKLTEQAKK
Chain of TLR1/TLR2 (Homo sapiens, UniProt O60603+Q15399) (O60603 21-784): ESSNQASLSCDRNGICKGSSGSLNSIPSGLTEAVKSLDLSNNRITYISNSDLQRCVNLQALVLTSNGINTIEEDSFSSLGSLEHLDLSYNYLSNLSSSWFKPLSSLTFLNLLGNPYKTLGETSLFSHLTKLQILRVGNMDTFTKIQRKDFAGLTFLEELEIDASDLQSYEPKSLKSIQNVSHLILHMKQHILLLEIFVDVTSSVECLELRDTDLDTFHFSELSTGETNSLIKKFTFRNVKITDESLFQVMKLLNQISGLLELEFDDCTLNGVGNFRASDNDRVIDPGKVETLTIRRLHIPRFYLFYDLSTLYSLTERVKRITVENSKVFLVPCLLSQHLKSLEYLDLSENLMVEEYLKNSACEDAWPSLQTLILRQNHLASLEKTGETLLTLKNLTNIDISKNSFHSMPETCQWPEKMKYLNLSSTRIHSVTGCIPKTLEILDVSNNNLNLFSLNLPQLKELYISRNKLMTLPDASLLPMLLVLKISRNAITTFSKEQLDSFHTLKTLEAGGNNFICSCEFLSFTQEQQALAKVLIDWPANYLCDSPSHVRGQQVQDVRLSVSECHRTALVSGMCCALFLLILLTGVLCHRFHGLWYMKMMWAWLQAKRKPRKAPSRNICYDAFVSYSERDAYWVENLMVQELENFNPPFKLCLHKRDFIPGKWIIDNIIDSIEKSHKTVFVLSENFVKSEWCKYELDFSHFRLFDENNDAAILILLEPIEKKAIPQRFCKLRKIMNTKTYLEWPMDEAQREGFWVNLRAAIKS
Protocol: THP-1 (American Type Culture Collection) cells, a human monocytic leukemia cell line, were differentiated by treatment with 100 nM PMA (Sigma) in Roswell Park Memorial Institute (RPMI) cell culture medium [RPMI containing 10% vol/vol FBS (Gemini Bio Products), 1% penicillin and streptomycin (Life Technologies)] for 24 h. After that, the cells were washed with PBS and cultured in fresh RPMI cell culture medium for 24 h before use in studies. PMA-differentiated THP-1 cells were seeded onto 96-well plates at 0.5×10^5 cells per well and treated with systematically varied concentrations of the candidate compounds (dissolved in DMSO, and the final assay DMSO concentration (0.1%) was kept constant in all experiments) for 4 h. Ultra-pure LPS (dissolved in H2O, Enzo Life Sciences) was assessed alongside the compounds as a positive control and DMSO treated control was used as a negative control. Human TNF-α in the supernatants was measured by ELISA (eBioscience). This assay was used for establishing dose-response curves and measured EC50's. EC50's were calculated by Graphpad Prism. All data is the mean of duplicates and SD is within +10% of mean.

Chain of TLR1/TLR2 (Mus musculus, UniProt Q9EPQ1+Q9QUN7) (Q9EPQ1 26-795): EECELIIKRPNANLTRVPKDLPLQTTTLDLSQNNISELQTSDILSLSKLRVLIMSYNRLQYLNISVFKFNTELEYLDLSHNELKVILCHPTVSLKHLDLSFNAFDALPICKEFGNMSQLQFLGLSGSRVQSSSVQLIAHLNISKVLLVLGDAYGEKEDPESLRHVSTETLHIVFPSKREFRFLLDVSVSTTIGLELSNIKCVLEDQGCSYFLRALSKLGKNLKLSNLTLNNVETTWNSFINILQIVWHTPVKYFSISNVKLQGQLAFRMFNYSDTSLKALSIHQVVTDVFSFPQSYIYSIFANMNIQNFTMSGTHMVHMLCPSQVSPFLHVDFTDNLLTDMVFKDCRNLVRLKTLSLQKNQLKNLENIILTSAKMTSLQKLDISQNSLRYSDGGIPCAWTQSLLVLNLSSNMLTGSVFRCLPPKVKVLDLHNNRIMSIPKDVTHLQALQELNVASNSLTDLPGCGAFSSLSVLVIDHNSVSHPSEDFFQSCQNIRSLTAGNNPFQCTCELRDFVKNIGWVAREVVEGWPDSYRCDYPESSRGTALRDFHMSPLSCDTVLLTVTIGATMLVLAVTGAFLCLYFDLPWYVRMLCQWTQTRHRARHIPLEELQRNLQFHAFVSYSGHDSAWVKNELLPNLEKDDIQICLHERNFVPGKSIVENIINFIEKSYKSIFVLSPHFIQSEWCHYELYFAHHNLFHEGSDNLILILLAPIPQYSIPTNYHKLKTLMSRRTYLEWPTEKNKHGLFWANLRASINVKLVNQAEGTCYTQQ
Chain of TLR1/TLR2 (Mus musculus, UniProt Q9EPQ1+Q9QUN7) (Q9QUN7 25-784): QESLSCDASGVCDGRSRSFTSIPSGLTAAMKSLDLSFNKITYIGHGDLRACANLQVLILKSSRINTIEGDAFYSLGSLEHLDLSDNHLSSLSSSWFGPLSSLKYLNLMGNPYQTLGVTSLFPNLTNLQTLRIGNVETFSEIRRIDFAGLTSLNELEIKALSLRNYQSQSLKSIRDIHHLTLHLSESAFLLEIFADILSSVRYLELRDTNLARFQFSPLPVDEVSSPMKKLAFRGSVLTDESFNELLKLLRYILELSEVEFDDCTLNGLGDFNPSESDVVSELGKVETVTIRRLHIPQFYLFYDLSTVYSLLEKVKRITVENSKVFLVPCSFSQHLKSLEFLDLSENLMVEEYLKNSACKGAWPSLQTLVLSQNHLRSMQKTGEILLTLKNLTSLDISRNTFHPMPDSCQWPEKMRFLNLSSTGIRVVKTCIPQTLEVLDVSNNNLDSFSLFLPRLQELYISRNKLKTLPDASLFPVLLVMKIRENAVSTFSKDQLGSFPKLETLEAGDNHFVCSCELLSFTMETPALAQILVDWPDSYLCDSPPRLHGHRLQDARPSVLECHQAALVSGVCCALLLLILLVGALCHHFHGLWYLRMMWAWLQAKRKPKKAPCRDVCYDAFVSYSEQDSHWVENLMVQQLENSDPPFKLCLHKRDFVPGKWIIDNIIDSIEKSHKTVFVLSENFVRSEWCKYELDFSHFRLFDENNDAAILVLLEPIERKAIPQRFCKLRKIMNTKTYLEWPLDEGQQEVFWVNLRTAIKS

The term EC50 denotes the concentration needed to bring the measured effect to its halfway point. As to `CNC(=O)CCCCCCCCCCCNC(=O)[C@@H]1CN(C(=O)c2ccc(C(=O)N3C[C@@H](C(=O)N[C@H]4C[C@@H]4c4ccccc4)[C@H](C(=O)N[C@H]4C[C@@H]4c4ccccc4)C3)cc2)C[C@H]1C(=O)N[C@H]1C[C@@H]1c1ccccc1` [Compound 13, (3S,4S)-1-(4-((3S,4S)-3,4-Bis(((1S,2R)-2-phenylcyclo-propyl)carbamoyl)pyrrolidine-1-carbonyl)-benzoyl)-N^3-(12-(methylamino)-12-oxododecyl)-N^4-((1S,2R)-2-phenyl-cyclopropyl)pyrrolidine-3,4-dicarboxamide], on TLR1/TLR2 [1], the Emax was 150% and the EC50 amounted to 60 nM. At TLR1/TLR2 [2], the Emax turned out to be 120% and the EC50 worked out at 1 nM.

Turning to `CC(C)(C)OC(=O)CNC(=O)CCCCCCCCCCCNC(=O)[C@@H]1CN(C(=O)c2ccc(C(=O)N3C[C@@H](C(=O)N[C@H]4C[C@@H]4c4ccccc4)[C@H](C(=O)N[C@H]4C[C@@H]4c4ccccc4)C3)cc2)C[C@H]1C(=O)N[C@H]1C[C@@H]1c1ccccc1` [Compound 14, tert-Butyl (12-((3S,4S)-1-(4-((3S,4S)-3,4-bis(((1S,2R)-2-phenylcyclopropyl)carbamoyl)-pyrrolidine-1-carbonyl)-benzoyl)-4-(((1S,2R)-2-phenylcyclopropyl)carbamoyl)pyrrolidine-3-carboxamido)dodecanoyl)glycinate], at TLR1/TLR2 [1], the Emax came out at 70% and the concentration for a half-maximal effect (EC50) was 25 nM. Moreover, on TLR1/TLR2 [2], the Emax came to 100% and the EC50 was determined as 20 nM.

For `O=C(O)CNC(=O)CCCCCCCCCCCNC(=O)[C@@H]1CN(C(=O)c2ccc(C(=O)N3C[C@@H](C(=O)N[C@H]4C[C@@H]4c4ccccc4)[C@H](C(=O)N[C@H]4C[C@@H]4c4ccccc4)C3)cc2)C[C@H]1C(=O)N[C@H]1C[C@@H]1c1ccccc1` [Compound 15, (12-((3S,4S)-1-(4-((3S,4S)-3,4-Bis(((1S,2R)-2-phenylcyclopropyl)carbamoyl)pyrrolidine-1-carbonyl)benzoyl)-4-(((1S,2R)-2-phenylcyclopropyl)carbamoyl)pyrrolidine-3-carboxamido)-dodecanoyl)glycine], on TLR1/TLR2 [1], the Emax was found to be 30% and the EC50 stood at 1200 nM. For the same compound, at TLR1/TLR2 [2], the Emax worked out at 110% and the half-maximal effective concentration (EC50) is 200 nM.

Turning to `NCCCCCCCCCCCCNC(=O)[C@@H]1CN(C(=O)c2ccc(C(=O)N3C[C@@H](C(=O)N[C@H]4C[C@@H]4c4ccccc4)[C@H](C(=O)N[C@H]4C[C@@H]4c4ccccc4)C3)cc2)C[C@H]1C(=O)N[C@H]1C[C@@H]1c1ccccc1` [Compound 16, (3S,4S)—N^3-(12-Aminododecyl)-1-(4-((3S,4S)-3,4-bis-(((1S,2R)-2-phenylcyclopropyl)carbamoyl)-pyrrolidine-1-carbonyl)benzoyl)-N^4-((1S,2R)-2-phenylcyclopropyl)-pyrrolidine-3,4-dicarboxamide], at TLR1/TLR2 [1], the Emax stood at 130% and the EC50 amounted to 10 nM. In addition, at TLR1/TLR2 [2], the Emax was found to be 140% and the EC50 came out at 0.8 nM.

Take `CC(C)(C)OC(=O)NCCCCCCCCCCCCNC(=O)[C@@H]1CN(C(=O)c2ccc(C(=O)N3C[C@@H](C(=O)N[C@H]4C[C@@H]4c4ccccc4)[C@H](C(=O)N[C@H]4C[C@@H]4c4ccccc4)C3)cc2)C[C@H]1C(=O)N[C@H]1C[C@@H]1c1ccccc1` [Compound 17, tert-Butyl (12-((3S,4S)-1-(4-((3S,4S)-3,4-bis(((1S,2R)-2-phenylcyclopropyl)carbamoyl)-pyrrolidine-1-carbonyl)benzoyl)-4-(((1S,2R)-2-phenylcyclopropyl)carbamoyl)pyrrolidine-3-carboxamido)dodecyl)carbamate]: on TLR1/TLR2 [1], the Emax is 120% and the 50% effective concentration (EC50) came to 2.8 nM. Also, on TLR1/TLR2 [2], the Emax worked out at 70% and the EC50 worked out at 0.18 nM.

On to `CC(C)(C)OC(=O)NCC(=O)NCCCCCCCCCCCCNC(=O)[C@@H]1CN(C(=O)c2ccc(C(=O)N3C[C@@H](C(=O)N[C@H]4C[C@@H]4c4ccccc4)[C@H](C(=O)N[C@H]4C[C@@H]4c4ccccc4)C3)cc2)C[C@H]1C(=O)N[C@H]1C[C@@H]1c1ccccc1` [Compound 18, tert-Butyl (2-((12-((3S,4S)-1-(4-((3S,4S)-3,4-bis-(((1S,2R)-2-phenylcyclopropyl)carbamoyl)pyrrolidine-1-carbonyl)-benzoyl)-4-(((1S,2R)-2-phenyl-cyclopropyl)-carbamoyl)pyrrolidine-3-carboxamido)-dodecyl)amino)-2-oxoethyl)carbamate], for which, at TLR1/TLR2 [1], the Emax came out at 90% and the EC50 worked out at 170 nM. For the same compound, at TLR1/TLR2 [2], the Emax was 90% and the EC50 was 0.33 nM.

For the compound `C#CCCCCCCCCCCCCNC(=O)[C@@H]1CN(C(=O)c2ccc(C(=O)N3C[C@@H](C(=O)N[C@H]4C[C@@H]4c4ccccc4)[C@H](C(=O)N[C@H]4C[C@@H]4c4ccccc4)C3)cc2)C[C@H]1C(=O)N[C@H]1C[C@@H]1c1ccccc1` [Compound 19, (3S,4S)-1-(4-((3S,4S)-3,4-Bis(((1S,2R)-2-phenylcyclo-propyl)carbamoyl)pyrrolidine-1-carbonyl)-benzoyl)-N^3-((1S,2R)-2-phenylcyclopropyl)-N^4-(tetradec-13-yn-1-yl)pyrrolidine-3,4-dicarboxamide], the Emax at TLR1/TLR2 [1] was determined as 180%; on TLR1/TLR2 [2] it was 120%. The results for the EC50 on TLR1/TLR2 [1] and at TLR1/TLR2 [2] were 1.3 nM and 0.04 nM, respectively.

With `[N-]=[N+]=NCCCCCCCCCCCCNC(=O)[C@@H]1CN(C(=O)c2ccc(C(=O)N3C[C@@H](C(=O)N[C@H]4C[C@@H]4c4ccccc4)[C@H](C(=O)N[C@H]4C[C@@H]4c4ccccc4)C3)cc2)C[C@H]1C(=O)N[C@H]1C[C@@H]1c1ccccc1` [Compound 20, (3S,4S)—N^3-(12-Azidododecyl)-1-(4-((3S,4S)-3,4-bis-(((1S,2R)-2-phenylcyclopropyl)carbamoyl)-pyrrolidine-1-carbonyl)benzoyl)-N^4-((1S,2R)-2-phenylcyclopropyl)-pyrrolidine-3,4-dicarboxamide], at TLR1/TLR2 [1], the Emax was 50% and the EC50 amounted to 0.6 nM. At TLR1/TLR2 [2], the Emax came out at 30% and the EC50 is 0.07 nM.

For `O=C(NCCCCCCCCCCCCS)[C@@H]1CN(C(=O)c2ccc(C(=O)N3C[C@@H](C(=O)N[C@H]4C[C@@H]4c4ccccc4)[C@H](C(=O)N[C@H]4C[C@@H]4c4ccccc4)C3)cc2)C[C@H]1C(=O)N[C@H]1C[C@@H]1c1ccccc1` [Compound 21, (3S,4S)-1-(4-((3S,4S)-3,4-Bis(((1S,2R)-2-phenyl-cyclopropyl)carbamoyl)pyrrolidine-1-carbonyl)-benzoyl)-N^3-(12-mercaptododecyl)-N^4-((1S,2R)-2-phenyl-cyclo-propyl)pyrrolidine-3,4-dicarboxamide], the EC50 on TLR1/TLR2 [1] stood at 5 nM; on TLR1/TLR2 [2], 0.5 nM.

In the case of `O=C(NCc1ccccc1)[C@@H]1CN(C(=O)c2ccc(C(=O)N3C[C@@H](C(=O)N[C@H]4C[C@@H]4c4ccccc4)[C@H](C(=O)N[C@H]4C[C@@H]4c4ccccc4)C3)cc2)C[C@H]1C(=O)N[C@H]1C[C@@H]1c1ccccc1` [Compound 22, (3S,4S)—N^3-Benzyl-1-(4-((3S,4S)-3,4-bis(((1S,2R)-2-phenylcyclopropyl)carbamoyl)pyrrolidine-1-carbonyl)-benzoyl)-N^4-((1S,2R)-2-phenylcyclopropyl)pyrrolidine-3,4-dicarboxamide], the EC50 came out at 50 nM on TLR1/TLR2 [1] and 7 nM on TLR1/TLR2 [2].

Regarding `O=C(NCCc1ccccc1)[C@@H]1CN(C(=O)c2ccc(C(=O)N3C[C@@H](C(=O)N[C@H]4C[C@@H]4c4ccccc4)[C@H](C(=O)N[C@H]4C[C@@H]4c4ccccc4)C3)cc2)C[C@H]1C(=O)N[C@H]1C[C@@H]1c1ccccc1` [Compound 23, (3S,4S)-1-(4-((3S,4S)-3,4-Bis(((1S,2R)-2-phenyl-cyclopropyl)carbamoyl)pyrrolidine-1-carbonyl)-benzoyl)-N^3-phenethyl-N^4-((1S,2R)-2-phenylcyclo-propyl)pyrrolidine-3,4-dicarboxamide], the EC50 at TLR1/TLR2 [1] was 30 nM; on TLR1/TLR2 [2], 1.5 nM.

For `O=C(NCc1ccc(F)cc1)[C@@H]1CN(C(=O)c2ccc(C(=O)N3C[C@@H](C(=O)N[C@H]4C[C@@H]4c4ccccc4)[C@H](C(=O)N[C@H]4C[C@@H]4c4ccccc4)C3)cc2)C[C@H]1C(=O)N[C@H]1C[C@@H]1c1ccccc1` [Compound 24, (3S,4S)-1-(4-((3S,4S)-3,4-Bis(((1S,2R)-2-phenylcyclo-propyl)carbamoyl)pyrrolidine-1-carbonyl)-benzoyl)-N^3-(4-fluorobenzyl)-N^4-((1S,2R)-2-phenylcyclopropyl)-pyrrolidine-3,4-dicarboxamide], the concentration for a half-maximal effect (EC50) at TLR1/TLR2 [1] came to 30 nM; on TLR1/TLR2 [2], 2 nM.

`O=C(NCCc1ccc(F)cc1)[C@@H]1CN(C(=O)c2ccc(C(=O)N3C[C@@H](C(=O)N[C@H]4C[C@@H]4c4ccccc4)[C@H](C(=O)N[C@H]4C[C@@H]4c4ccccc4)C3)cc2)C[C@H]1C(=O)N[C@H]1C[C@@H]1c1ccccc1` [Compound 25, (3S,4S)-1-(4-((3S,4S)-3,4-Bis(((1S,2R)-2-phenylcyclo-propyl)carbamoyl)pyrrolidine-1-carbonyl)-benzoyl)-N^3-(4-fluorophenethyl)-N^4-((1S,2R)-2-phenylcyclopropyl)-pyrrolidine-3,4-dicarboxamide]: the EC50 at TLR1/TLR2 [1] was determined as 1 nM; on TLR1/TLR2 [2] it was 0.5 nM.

As for `O=C(NCCCCCCCCc1ccc(O)cc1)[C@@H]1CN(C(=O)c2ccc(C(=O)N3C[C@@H](C(=O)N[C@H]4C[C@@H]4c4ccccc4)[C@H](C(=O)N[C@H]4C[C@@H]4c4ccccc4)C3)cc2)C[C@H]1C(=O)N[C@H]1C[C@@H]1c1ccccc1` [Compound 26, (3S,4S)-1-(4-((3S,4S)-3,4-Bis(((1S,2R)-2-phenylcyclo-propyl)carbamoyl)pyrrolidine-1-carbonyl)-benzoyl)-N^3-(8-(4-hydroxyphenyl)octyl)-N^4-((1S,2R)-2-phenylcyclo-propyl)pyrrolidine-3,4-dicarboxamide], the Emax came out at 380% on TLR1/TLR2 [1] and 90% at TLR1/TLR2 [2]. Further, the EC50 at TLR1/TLR2 [1] stood at 2.6 nM; on TLR1/TLR2 [2] it was 0.15 nM.

For the origin of these results see patent US20250367166A1, “NEXT GENERATION DIPROVOCIMS THAT ACTIVATE THE INNATE AND ADAPTIVE IMMUNE RESPONSE” (The Scripps Research Institute, priority 2022, published 2025).
